Test results as given in patent US20100092526A1, “NANOEMULSION THERAPEUTIC COMPOSITIONS AND METHODS OF USING THE SAME” (NanoBio Corporation, priority 2008, published 2010).
≈ marks a conversion by molar mass, not a printed value. Like-named read-outs stand apart in the source and are kept apart here.

Assays:
[1] = system: Stenotrophomonas maltophilia; test: MIC/MBC against CF isolates (CLSI, alamar blue); conditions: Stenotrophomonas maltophilia
Proteus mirabilis = test: MIC/MBC of nanoemulsions against gram-negative isolates (CLSI, alamar blue); assay type: cell-based; conditions: Proteus mirabilis (n = 5); for MIC50 / MIC Range: nanoemulsions in the presence of 5 mM EDTA
Pseudomonas aeruginosa [2] = test: MIC/MBC against CF isolates (CLSI, alamar blue); conditions: Pseudomonas aeruginosa
[3] = system: Stenotrophomonas maltophilia; test: MIC/MBC of nanoemulsions against gram-negative isolates (CLSI, alamar blue); assay type: cell-based; conditions: Stenotrophomonas maltophilia (n = 5); for MIC50: nanoemulsions in the presence of 5 mM EDTA
Pseudomonas aeruginosa [4] = test: as above; assay type: cell-based; conditions: Pseudomonas aeruginosa (n = 5); for MIC50 / MIC Range: nanoemulsions in the presence of 5 mM EDTA
Escherichia coli = test: as above; assay type: cell-based; conditions: Escherichia coli (n = 5)
Burkholderia cenocepacia = test: MIC/MBC against CF isolates (CLSI, alamar blue); conditions: Burkholderia cenocepacia
Acinetobacter baumannii [5] = test: MIC/MBC against clinical isolates (CLSI, alamar blue); conditions: Acinetobacter baumannii
Burkholderia cepacia = test: MIC/MBC of nanoemulsions against gram-negative isolates (CLSI, alamar blue); assay type: cell-based; conditions: Burkholderia cepacia (n = 5); for MIC50 / MIC Range: nanoemulsions in the presence of 5 mM EDTA; for MIC Range: in µg/mL
Klebsiella pneumoniae = test: as above; assay type: cell-based; conditions: Klebsiella pneumoniae (n = 5); for MIC50 / MIC Range: nanoemulsions in the presence of 5 mM EDTA; for MIC Range: in µg/mL
Acinetobacter baumannii [6] = test: as above; assay type: cell-based; conditions: Acinetobacter baumannii (n = 5); for MIC50: nanoemulsions in the presence of 5 mM EDTA
[7] = CF Stenotrophomonas isolate NB41
[8] = CF Stenotrophomonas isolate NB42
[9] = CF Stenotrophomonas isolate NB43
[10] = CF Stenotrophomonas isolate NB44
[11] = CF Stenotrophomonas isolate NB45
[12] = CF Stenotrophomonas isolate Steno 1
[13] = CF Stenotrophomonas isolate Steno 2
[14] = CF Stenotrophomonas isolate Steno 3
[15] = CF Stenotrophomonas isolate Steno 4
[16] = CF Stenotrophomonas isolate Steno 6
[17] = CF Stenotrophomonas isolate Steno 8
[18] = nanoemulsions in the presence of 5 mM EDTA

In the case of `CC(C)(O/N=C(\C(=O)N[C@@H]1C(=O)N2C(C(=O)[O-])=C(C[n+]3ccccc3)CS[C@H]12)c1csc(N)n1)C(=O)O` [Ceftazidime], the MIC50 [1] is reported as greater than 32 µg/mL, the MIC90 [1] is reported as greater than 32 µg/mL and the MBC [1, 7] is reported as greater than 32 µg/mL. For the same compound, the MIC [1, 7] was greater than 32 µg/mL, the MBC [1, 8] was greater than 32 µg/mL and the MIC [1, 8] was 8 µg/mL (≈ 14.6 µM). The MBC [1, 9] was greater than 32 µg/mL, the MIC [1, 9] was greater than 32 µg/mL and the MBC [1, 10] was greater than 32 µg/mL. It also gave an MIC [1, 10] greater than 32 µg/mL, an MBC [1, 11] greater than 32 µg/mL and an MIC [1, 11] greater than 32 µg/mL. The MBC [1, 12] was greater than 32 µg/mL, the MIC [1, 12] was greater than 32 µg/mL and the MBC [1, 13] was greater than 32 µg/mL. The MIC [1, 13] was greater than 32 µg/mL, the MBC [1, 14] was greater than 32 µg/mL and the MIC [1, 14] was greater than 32 µg/mL. It also gave an MBC [1, 15] of 16 µg/mL (≈ 29.3 µM), an MIC [1, 15] of 2 µg/mL (≈ 3.66 µM) and an MBC [1, 16] greater than 32 µg/mL. The MIC [1, 16] was 32 µg/mL (≈ 58.5 µM), the MBC [1, 17] was greater than 32 µg/mL and the MIC [1, 17] was 16 µg/mL (≈ 29.3 µM). The MBC ([1]; read-out: MBC 50, 11 CF Stenotrophomonas isolates) was greater than 32 µg/mL, the “% resistant” value (Proteus mirabilis) was 0.0% and the “% susceptible” value (Proteus mirabilis) was 100.0%. For the same compound, the MIC50 (Proteus mirabilis) was no more than 1 µg/mL, the “MIC Range” value (Proteus mirabilis; in µg/mL) was “<=1” and the MBC (Pseudomonas aeruginosa [2]; CF Pseudomonas isolate NB12) was 512 µg/mL (≈ 937 µM). The MIC (Pseudomonas aeruginosa [2]; CF Pseudomonas isolate NB12) was 256 µg/mL (≈ 468 µM), the MBC (Pseudomonas aeruginosa [2]; CF Pseudomonas isolate NB13) was 512 µg/mL (≈ 937 µM) and the MIC (Pseudomonas aeruginosa [2]; CF Pseudomonas isolate NB13) was 512 µg/mL (≈ 937 µM). The MBC (Pseudomonas aeruginosa [2]; CF Pseudomonas isolate NB14) was greater than 1020 µg/mL, the MIC (Pseudomonas aeruginosa [2]; CF Pseudomonas isolate NB14) was 1020 µg/mL (≈ 1870 µM) and the MBC (Pseudomonas aeruginosa [2]; CF Pseudomonas isolate NB15) was 512 µg/mL (≈ 937 µM). The MIC (Pseudomonas aeruginosa [2]; CF Pseudomonas isolate NB15) was 256 µg/mL (≈ 468 µM), the MBC (Pseudomonas aeruginosa [2]; CF Pseudomonas isolate NB16) was greater than 1020 µg/mL and the MIC (Pseudomonas aeruginosa [2]; CF Pseudomonas isolate NB16) was 256 µg/mL (≈ 468 µM). For the same compound, the MBC (Pseudomonas aeruginosa [2]; CF Pseudomonas isolate NB19) was 1020 µg/mL (≈ 1870 µM), the MIC (Pseudomonas aeruginosa [2]; CF Pseudomonas isolate NB19) was 512 µg/mL (≈ 937 µM) and the MBC (Pseudomonas aeruginosa [2]; CF Pseudomonas isolate NB20) was 512 µg/mL (≈ 937 µM). The MIC (Pseudomonas aeruginosa [2]; CF Pseudomonas isolate NB20) was 256 µg/mL (≈ 468 µM), the “% resistant” value [3] was 40.0/40.0% and the “% susceptible” value [3] was 40.0/40.0%. The MIC50 [3] was 16 µg/mL, the “% resistant” value (Pseudomonas aeruginosa [4]) was 0.0% and the “% susceptible” value (Pseudomonas aeruginosa [4]) was 100.0%. For the same compound, the MIC50 (Pseudomonas aeruginosa [4]) was 2 µg/mL, the “MIC Range” value (Pseudomonas aeruginosa [4]; in µg/mL) was 2-4 and the “% resistant” value (Escherichia coli) was 20.0%. The “% susceptible” value (Escherichia coli) was 80.0%, the MIC50 (Escherichia coli; [18]) was no more than 1 µg/mL and the MBC (Burkholderia cenocepacia; CF Burkholderia isolate NB21) was greater than 32 µg/mL. It also gave an MIC (Burkholderia cenocepacia; CF Burkholderia isolate NB21) of 8 µg/mL (≈ 14.6 µM), an MBC (Burkholderia cenocepacia; CF Burkholderia isolate NB22) greater than 32 µg/mL and an MIC (Burkholderia cenocepacia; CF Burkholderia isolate NB22) of 8 µg/mL (≈ 14.6 µM). It also gave an MBC (Burkholderia cenocepacia; CF Burkholderia isolate NB23) greater than 32 µg/mL, an MIC (Burkholderia cenocepacia; CF Burkholderia isolate NB23) greater than 32 µg/mL and an MBC (Burkholderia cenocepacia; CF Burkholderia isolate NB24) of 32 µg/mL (≈ 58.5 µM). For the same compound, the MIC (Burkholderia cenocepacia; CF Burkholderia isolate NB24) was 4 µg/mL (≈ 7.32 µM), the MBC (Burkholderia cenocepacia; CF Burkholderia isolate NB25) was 32 µg/mL (≈ 58.5 µM) and the MIC (Burkholderia cenocepacia; CF Burkholderia isolate NB25) was 16 µg/mL (≈ 29.3 µM). For the same compound, the MBC (Burkholderia cenocepacia; CF Burkholderia isolate NB26) was 32 µg/mL (≈ 58.5 µM), the MIC (Burkholderia cenocepacia; CF Burkholderia isolate NB26) was 16 µg/mL (≈ 29.3 µM) and the MBC (Burkholderia cenocepacia; CF Burkholderia isolate NB27) was 16 µg/mL (≈ 29.3 µM). The MIC (Burkholderia cenocepacia; CF Burkholderia isolate NB27) was 8 µg/mL (≈ 14.6 µM), the MBC (Burkholderia cenocepacia; CF Burkholderia isolate NB28b) was 16 µg/mL (≈ 29.3 µM) and the MIC (Burkholderia cenocepacia; CF Burkholderia isolate NB28b) was 16 µg/mL (≈ 29.3 µM). For the same compound, the MBC (Burkholderia cenocepacia; CF Burkholderia isolate NB29) was greater than 32 µg/mL, the MIC (Burkholderia cenocepacia; CF Burkholderia isolate NB29) was 4 µg/mL (≈ 7.32 µM) and the MBC (Burkholderia cenocepacia; CF Burkholderia isolate NB30) was 2 µg/mL (≈ 3.66 µM). For the same compound, the MIC (Burkholderia cenocepacia; CF Burkholderia isolate NB30) was 2 µg/mL (≈ 3.66 µM), the MIC50 (Acinetobacter baumannii [5]) was greater than 32 µg/mL and the MIC90 (Acinetobacter baumannii [5]) was greater than 32 µg/mL. The MBC (Acinetobacter baumannii [5]; Acinetobacter isolate NB31) was greater than 32 µg/mL, the MIC (Acinetobacter baumannii [5]; Acinetobacter isolate NB31) was greater than 32 µg/mL and the MBC (Acinetobacter baumannii [5]; Acinetobacter isolate NB32) was greater than 32 µg/mL. For the same compound, the MIC (Acinetobacter baumannii [5]; Acinetobacter isolate NB32) was greater than 32 µg/mL, the MBC (Acinetobacter baumannii [5]; Acinetobacter isolate NB33) was greater than 32 µg/mL and the MIC (Acinetobacter baumannii [5]; Acinetobacter isolate NB33) was greater than 32 µg/mL. For the same compound, the MBC (Acinetobacter baumannii [5]; Acinetobacter isolate NB34) was 32 µg/mL (≈ 58.5 µM), the MIC (Acinetobacter baumannii [5]; Acinetobacter isolate NB34) was 32 µg/mL (≈ 58.5 µM) and the MBC (Acinetobacter baumannii [5]; Acinetobacter isolate NB35) was greater than 32 µg/mL. The MIC (Acinetobacter baumannii [5]; Acinetobacter isolate NB35) was greater than 32 µg/mL, the MBC (Acinetobacter baumannii [5]; Acinetobacter isolate NB36) was 4 µg/mL (≈ 7.32 µM) and the MIC (Acinetobacter baumannii [5]; Acinetobacter isolate NB36) was 2 µg/mL (≈ 3.66 µM). The MBC (Acinetobacter baumannii [5]; Acinetobacter isolate NB37) was 32 µg/mL (≈ 58.5 µM), the MIC (Acinetobacter baumannii [5]; Acinetobacter isolate NB37) was 32 µg/mL (≈ 58.5 µM) and the MBC (Acinetobacter baumannii [5]; Acinetobacter isolate NB38) was greater than 32 µg/mL. The MIC (Acinetobacter baumannii [5]; Acinetobacter isolate NB38) was greater than 32 µg/mL, the MBC (Acinetobacter baumannii [5]; Acinetobacter isolate NB39) was greater than 32 µg/mL and the MIC (Acinetobacter baumannii [5]; Acinetobacter isolate NB39) was 32 µg/mL (≈ 58.5 µM). It also gave an MBC (Acinetobacter baumannii [5]; Acinetobacter isolate NB40) greater than 32 µg/mL, an MIC (Acinetobacter baumannii [5]; Acinetobacter isolate NB40) greater than 32 µg/mL and an MBC (Acinetobacter baumannii [5]; read-out: MBC 50, 10 Acinetobacter isolates) greater than 32 µg/mL. The “% resistant” value (Burkholderia cepacia) was 0.0%, the “% susceptible” value (Burkholderia cepacia) was 100.0% and the MIC50 (Burkholderia cepacia) was 2 µg/mL. For the same compound, the “MIC Range” value (Burkholderia cepacia) was 2-4, the “% resistant” value (Klebsiella pneumoniae) was 20.0% and the “% susceptible” value (Klebsiella pneumoniae) was 80.0%. For the same compound, the MIC50 (Klebsiella pneumoniae) was no more than 1 µg/mL, the “% resistant” value (Acinetobacter baumannii [6]) was 20.0% and the “% susceptible” value (Acinetobacter baumannii [6]) was 80.0%. It also gave an MIC50 (Acinetobacter baumannii [6]) of 4 µg/mL.

In the case of Gentamicin, the “% resistant” value (Proteus mirabilis) is reported as 0.0%, the “% susceptible” value (Proteus mirabilis) is reported as 100.0% and the MIC50 (Proteus mirabilis) is reported as no more than 2 µg/mL. For the same compound, the “MIC Range” value (Proteus mirabilis; in µg/mL) was “<=2”, the MIC50 [3] was greater than 8 µg/mL and the “% resistant” value (Pseudomonas aeruginosa [4]) was 0.0%. The “% susceptible” value (Pseudomonas aeruginosa [4]) was 100.0%, the MIC50 (Pseudomonas aeruginosa [4]) was no more than 2 µg/mL and the “MIC Range” value (Pseudomonas aeruginosa [4]) was “<=2-4 ^”. For the same compound, the “% resistant” value (Escherichia coli) was 20.0%, the “% susceptible” value (Escherichia coli) was 80.0% and the MIC50 (Escherichia coli; [18]) was no more than 2 µg/mL. For the same compound, the MIC50 (Burkholderia cepacia) was greater than 8 µg/mL, the “MIC Range” value (Burkholderia cepacia) was greater than 8 and the “% resistant” value (Klebsiella pneumoniae) was 0.0%. The “% susceptible” value (Klebsiella pneumoniae) was 100.0%, the MIC50 (Klebsiella pneumoniae) was no more than 2 µg/mL and the “MIC Range” value (Klebsiella pneumoniae) was “<=2”. For the same compound, the “% resistant” value (Acinetobacter baumannii [6]) was 20.0%, the “% susceptible” value (Acinetobacter baumannii [6]) was 80.0% and the MIC50 (Acinetobacter baumannii [6]) was no more than 2 µg/mL.

Piperacillin/tazobactam was tested, and the “% resistant” value (Proteus mirabilis) was 0.0%, the “% susceptible” value (Proteus mirabilis) was 100.0% and the MIC50 (Proteus mirabilis) was no more than 0.5 µg/mL. For the same compound, the “MIC Range” value (Proteus mirabilis) was “<=0.5-1 ^”, the MIC50 [3] was greater than 64 µg/mL and the “% resistant” value (Pseudomonas aeruginosa [4]) was 0.0%. For the same compound, the “% susceptible” value (Pseudomonas aeruginosa [4]) was 100.0%, the MIC50 (Pseudomonas aeruginosa [4]) was 2 µg/mL and the “MIC Range” value (Pseudomonas aeruginosa [4]; in µg/mL) was 2-16. The “% resistant” value (Escherichia coli) was 0.0%, the “% susceptible” value (Escherichia coli) was 100.0% and the MIC50 (Escherichia coli; [18]) was 2 µg/mL. For the same compound, the “MIC Range” value (Escherichia coli; nanoemulsions in the presence of 5 mM EDTA, in µg/mL) was 1-8, the MIC50 (Burkholderia cepacia) was 4 µg/mL and the “MIC Range” value (Burkholderia cepacia) was 2-32. For the same compound, the “% resistant” value (Klebsiella pneumoniae) was 0.0%, the “% susceptible” value (Klebsiella pneumoniae) was 80.0% and the MIC50 (Klebsiella pneumoniae) was 2 µg/mL. For the same compound, the “MIC Range” value (Klebsiella pneumoniae) was 1-64, the “% resistant” value (Acinetobacter baumannii [6]) was 20.0% and the “% susceptible” value (Acinetobacter baumannii [6]) was 80.0%. For the same compound, the MIC50 (Acinetobacter baumannii [6]) was 2 µg/mL.
